The text below walks through data of paper PMC6337261, “Short Peptides with Uncleavable Peptide Bond Mimetics as Photoactivatable Caspase-3 Inhibitors” (Molecules, 2019).

For assay [1], the system named is caspase-3. The assay can be described thus: ESI-MS on purified caspase-3 (covalent modification). The assay is classed as binding. The settings on record: 10a under irradiation at 365 nm. From the text:
Our probes were designed to irreversibly photocrosslink to caspase-3. In order to show covalent complex formation, we made use of the alkyne function located at the N-terminus of all probes by installing a tetramethyl rhodamine fluorophore (TAMRA) via copper(I)-catalyzed azide alkyne cycloaddition. […] To exclude that this observation was due to our gel-based read-out, we also performed mass spectrometry experiments. […] This mass shift corresponded to the covalent modification (Figure 3C).
Intact proteins were analyzed on an orbitrap Fusion Lumos mass spectrometer equipped with a nanoelectrospray ion source (Thermo Fischer, Dreieich, Germany). Sample desalting was performed using Amicon Ultra-0.5 3K NMWL centrifugal filters (Merck Millipore, Darmstadt, Germany) according to the manufacturer’s protocol and samples were brought to a final concentration of approx. 1 pmol/µL (in 25% MeOH and 0.5% formic acid). […]
Figure 3 Non-covalent inhibition of caspase-3 by compounds 9 and 10. […] (G) UV irradiation of ψ(CH2NH) peptides 14 and 15 in the presence of benzophenone leads to inhibition of caspase-3, as monitored by competitive ABPP. […] Ac-DEVD-aldehyde (100 nM) was used as a control compound, whereas 9a and 10a (10 μM) were irradiated for 10 min and reacted with sodium bisulfite for an additional 20 min before 30 min incubation with caspase-3 and read-out with a fluorescent caspase ABP.

Assay [2] has as its system caspase-3. As to the kind of experiment: Gel-based competitive ABPP on recombinant caspase-3. The settings on record: 10 μM compound, PBS with 1 mM DTT, fluorescent ABP read-out on gel. The assay is classed as biochemical. Here is the method:
To check whether our probes function as inhibitors, competitive ABPP [28] was performed. Recombinant caspase-3 was incubated with probes 9a–10c, 11a and 12a with or without irradiation at 365 nm, followed by labeling of residually active caspase-3 with the fluorescent, caspase-directed activity-based probe (ABP) SV149, a tetramethylrhodamine derivative of KMB-01 [29]. Caspase activity itself was not affected by UV irradiation, as shown by bands of equal intensity with and without UV light (Figure 2A). […] To confirm inhibition, we also performed substrate cleavage assays using the fluorogenic aminomethyl coumarin substrate Ac-DEVD-AMC. […] Inhibition of active caspases could also be achieved in an apoptotic cell lysate (Figure 2D).
Caspase-3, produced in E. coli and purified as described before, was reacted in PBS with 1 mM DTT. Samples were combined with the indicated probe and irradiated with a handheld UV lamp at 365 nm for 30 min at room temperature. For competition experiments with ‘pre-activation,’ the indicated probes were irradiated for 30 min prior to addition to caspase-3, and incubated for an additional 30 min. Next, ABP 13 was added (final concentration 1 μM) to label residual caspase-3 activity. The samples were incubated for 30 min at room temperature, after which 1/3rd volume of 4× Laemmli buffer was added. Samples were heated at 95 °C for 2 min and resolved by 15% SDS-PAGE. Gels were scanned using a Typhoon Trio+ fluorescent scanner with excitation at 532 nm and an emission filter of 580 nm. Gel images were processed with ImageJ (background subtraction with rolling ball radius of 50 pixels and automated contrast adjustment).
Figure 2 Inhibition of caspase-3. (A) Competitive activity-based protein profiling (ABPP) experiments using ψ(CH2NH) or triazolo peptide derivatives 9–12 with or without irradiation. Compounds 9a–12a were used at 10 μM final concentration, 9b, 9c, 10b and 10c at 100 μM. Inh = caspase inhibitor biotin-DEVD-AOMK, used at 100 nM concentration. (B) Representative progress curves of fluorescence produced by Ac-DEVD-AMC (50 μM) cleavage by caspase-3, irradiated with or without 10 μM of the indicated compounds. (C) Bar graph of residual caspase-3 activity of replicate experiments (n = 2) of those in (B). (D) Inhibition of executioner’s caspase-3 and -7 in lysates of HEK293 cells, treated with cytochrome c/dATP to induce apoptosis.

Regarding “Hexynoyl-Asp-Glu-Val-Aspψ(CH2NH)-Ala-Bpa-NH2 [10a]”, in the assay with caspase-3 [1], the “Covalent modification of caspase-3 (mass shift, ESI-MS)” value is reported as “did not reveal any modification”. The figures for the “Inhibition of caspase-3 activity (caspase ABP labeling)” value with caspase-3 [2] (irradiated at 365 nm for 30 min at room temperature) and in the assay on caspase-3 [2] (non-irradiated) were “complete inhibition” and “no decrease in caspase ABP labeling”, respectively.
